Experimental data published in patent publication US20030108462A1, “Method of extracting contaminants from solid matter” (priority 2001, published 2003).
Where “and” joins values, the source holds several entries; their conditions need not be identical. Equal entries are not always repeated.

Experiments:
[1] = Chelating-agent leaching of comminuted CCA treated wood, chromium; conditions: weight basis, before being adjusted for moisture content
Description: (§1) 32 grams of the comminuted treated wood was used to represent 1 mole of the contaminants, and was reacted with 1000 ml of 0.1 mole ethylenediamine-N,N,N′,N′-tetraacetic acid at a temperature of 70° C. for a period of 6 hours. The sample was agitated and allowed to settle periodically to thoroughly mix the wood and the solution, as well as to facilitate leaching. After the last settling period, the mixture stratified into a green colored supernatant which contained the chelated CCA components in soluble form at the top, and clean looking sawdust at the bottom of the reaction container.
(§2) Upon completion of reaction, the supernatant was decanted and retained. The solid section was allowed to drain freely for 15 minutes, after which 500 ml of fresh water was added and the mixture was periodically mixed and allowed to settle for a period of 30 minutes. Similarly, the mixture stratified into a light green solution and cleaner looking saw dust. The liquid was decanted and added to the previously decanted liquid. The settled solids were wrapped in a 250μ filter paper and subjected to a weight of 6 pounds per square inch and allowed to drain. Upon completion, the drained liquid was added to the previously decanted liquids and sent for laboratory analysis. The retained solids were oven dried and analyzed for the target contaminants.
(§3) 100 grams of the comminuted treated wood was used to represent 1 mole of the contaminants and reacted with 1000 mL of 0.1 mole EDTA disodium solution at 30° C. for 30 hours. […]
(§4) Upon completion of reaction, the supernatant was decanted and retained. […] The retained solids were oven dried and analyzed for the target contaminants. […]
(§5) Upon completion of reaction, the supernatant was decanted and retained The solid section was allowed to drain freely for 15 minutes, after which 500 ml of fresh water with a known quality was added and the mixture was periodically mixed and allowed to settle for a period of 30 minutes. […] The retained solids were oven dried and analyzed for the target contaminants.

[2] = Chelating-agent leaching of comminuted CCA treated wood, arsenic; conditions: weight basis, before being adjusted for moisture content
Description: as §1, §2, §3, §4, §5

[3] = Chelating-agent leaching of comminuted CCA treated wood, copper; conditions: weight basis, before being adjusted for moisture content
Description: as §1, §2, §3, §4, §5

[4] = at 25° C.; cited from earlier work

SMILES | Percent Removal, Chromium [1] | Percent Removal, Arsenic [2] [%] | Percent Removal, Copper [3] [%] | Solubility [4] [g/l00 mL at 25 °C]
O=C(O)CN(CCN(CC(=O)O)CC(=O)O)CC(=O)O [EXAMPLE 3, EDTA Free Acid] | 90.09% and 90.89% | 96.09 | 99.75 | 
O=C([O-])CN(CCN(CC(=O)[O-])CC(=O)O)CC(=O)O.[Na+].[Na+] [EXAMPLE 2, EDTA disodium] | 90.86% | 96.36 | 98.35 | 
O=C(O)CN(CCN(CC(=O)O)CC(=O)O)CCN(CC(=O)O)CC(=O)O [Diethylenetriamine-N,N,N′,N″,N′-pentaacetic Acid] |  |  |  | 0.46
O=C(O)CN(CCN(CC(=O)O)CC(=O)O)CC(=O)O [EXAMPLE 1, ethylenediamine-N,N,N′,N′-tetraacetic acid] | 84.47% | 93.28 | 95.54 | 
